Experiments:
HeLa cells [1] = assay: Compound sensitivity testing in cell lines (48 h viability); assay type: cell-based
Procedure: (§1) 1500 NCI-H1734 or 1000 A549 cells were plated in a 384-well plate in 40 μl of RPMI supplemented with 10% Fetal Bovine Serum and 1% Pen/Strep. 24 hours after plating, a compound-library of 1924 small molecules was added at a concentration of 10 μM. Staurosporine was used a positive control for cytotoxicity at a concentration of 10 μM, and DMSO was used a negative control at a concentration of 1%. All compounds were incubated for 48 hours with indicated small molecules. After 48 hours, 384-well plates were removed from the incubator and allowed to cool to room temperature for 20 minutes. Cell viability was assessed by adding 40 μl of a 25% CELLTITERGLO® (Promega) in PBS with a THERMO COMBI™ or multichannel-pipette and incubated for 10 minutes. The luminescence signal was read using a Perkin-Elmer EnVision. Viability percentage was calculated by normalizing to DMSO controls.
1000 HeLa (DMEM), 1000 A549 (RPMI), 500 MCF-7 (DMEM), 4000 PC3 (F12-K), 1000 NCI-H2122 (RPMI) or 1500 NCI-H1563 (RPMI) cells were plated in a 384-well plate in 40 μl of corresponding growth media supplemented with 10% Fetal Bovine Serum. 24 hours after plating, indicated compounds were added at indicated concentrations and incubated for 48 hours. Cell viability was assessed as described in Compound library screening in NCI-H1734 and A549 cell lines.

PDE3A = PDE3A (Homo sapiens, UniProt Q14432); assay: Linker-affinity purification of molecular target of DNMDP and immunoblotting; assay type: binding; design: Immunoprecipitation of endogenous PDE3A in HeLa cells; endogenous in cells; host or cells: HeLa; details: HeLa cell lysate, competitor 10 μM, immunoblot for PDE3A
Procedure: To identify the molecular target of DNMDP, an affinity purification was performed using an (R)-des-nitro-DNMDP solid-phase tethered linker analogue (FIG. 10A) incubated with HeLa cell lysate. […] It was competed for the molecular target by adding either an excess of trequinsin or separate enantiomers of DNMDP, where only the (R)-enantiomer was cytotoxic. […] Binding of PDE3A to the linker analogue was blocked by both trequinsin and (R)-DNMDP, but not by the non-cytotoxic enantiomer (S)-[…]. 9C). Thus both trequinsin and (R)-DNMDP prevented the binding of PDE3A to the tethered DNMDP analogue, and it was concluded that both molecules bind PDE3A directly. HeLa cells were washed with ice-cold PBS before lysed with NP-40 lysis buffer (150 mM NaCl, 10% glycerol, 50 mM Tris-Cl pH 8.0, 50 mM MgCl2, 1% NP-40) supplemented with EDTA-free protease inhibitors (Roche) and phosphatase inhibitor mixtures I and II (Calbiochem). […] Samples were washed three times with lysis buffer containing corresponding compound concentrations of 10 μM. Proteins bound to Affi-Gel 102 resin were reduced, denatured, and separated using Tris-Glycine gels (Novex) and transferred to nitrocellulose membranes using the iBlot transfer system (Novex). Membranes were incubated overnight at 4° C. with primary antibodies against PDE3A (1:1000, Bethyl). […]

234 kinases = assay: Screening of 234 kinases; assay type: biochemical; details: 10 μM
A549 cells [2] = assay: Compound library screening and dose-response retest, cell viability (ATP content, CellTiter-Glo); assay type: cell-based; details: A549, 48 hours
Procedure: (§2) To identify anti-cancer compounds with cell-selective cytotoxic activity, an unbiased chemical screen was performed in two lung adenocarcinoma cell lines, A549 and NCI-H1734, both of which harbor oncogenic KRAS mutations and truncating STK11 mutations, and which were TP53 wild type and mutant (R273L), respectively. 1,924 compounds were screened from the Molecular Libraries Small-Molecule Repository validation set in the A549 and NCI-H1734 cell lines at a single concentration of 10 μM in 384-well format in duplicate. As a proxy for cellular viability, ATP content was measured after 48 hours of compound treatment.
as §1, with “After 48 hours, 384-well plates were removed from the incubator and allowed to cool to room temperature for 20 minutes.” left out

NCI-H1734 cells = assay: as above; assay type: cell-based; details: NCI-H1734, 48 hours
Procedure: as §2
as §1, with “After 48 hours, 384-well plates were removed from the incubator and allowed to cool to room temperature for 20 minutes.” left out

HeLa cells [3] = assay: DNMDP cytotoxicity after targeting PDE3A locus using CRISPR; assay type: cell-based; details: HeLa infected with Cas9 and sgRNAs against PDE3A
Procedure: FIG. 11A is a Western blot. HeLa cells were infected with Cas9 and indicated guide RNAs (sgRNA) against PDE3A. Western blots were probed for PDE3A at indicated time points. FIG. 11B is a bar graph showing percent rescue of HeLa cells that were infected with indicated sgRNAs for two weeks and treated with 1 μM of 6-(4-(diethylamino)-3-nitrophenyl)-5-methyl-4,5-dihydropyridazin-3(2H)-one (DNMDP) for 48 hours. Percent rescue was normalized to the Cas9-only control. FIG. 11C is a plot showing viability of cells infected with indicated sgRNAs and treated with various concentrations of 6-(4-(diethylamino)-3-nitrophenyl)-5-methyl-4,5-dihydropyridazin-3(2H)-one (DNMDP).
Based on the observations that DNMDP-sensitive cells expressed high levels of PDE3A, and that DNMDP competed with non-cytotoxic inhibitors for PDE3A binding, it was hypothesized that DNMDP mediated its cytotoxic phenotype through the interaction with PDE3A and that PDE3A abundance was a direct cellular determinant of DNMDP sensitivity. To validate this hypothesis, the effect of reducing levels of PDE3A on the response to DNMDP was tested. […] In an independent approach using an siRNA smart-pool containing four different siRNAs targeting PDE3A, PDE3A expression was reduced in HeLa cell line with a maximum efficiency of 70% between 24 and 72 hours after transfection. […]

A549 cells [4] = assay: Sensitization of DNMDP-resistant cell line by expression of SLFN12 or SLFN12 and PDE3A; assay type: cell-based; details: A549 expressing SLFN12
From the text: FIG. 22 is a plot showing sensitization of a DNMDP-resistant cell line by expression of SLFN12 or expression of SFLN12 and PDE3A.
Adding PDE3A expression led to further sensitization.

Sequence of PDE3A (Q14432 whole entry): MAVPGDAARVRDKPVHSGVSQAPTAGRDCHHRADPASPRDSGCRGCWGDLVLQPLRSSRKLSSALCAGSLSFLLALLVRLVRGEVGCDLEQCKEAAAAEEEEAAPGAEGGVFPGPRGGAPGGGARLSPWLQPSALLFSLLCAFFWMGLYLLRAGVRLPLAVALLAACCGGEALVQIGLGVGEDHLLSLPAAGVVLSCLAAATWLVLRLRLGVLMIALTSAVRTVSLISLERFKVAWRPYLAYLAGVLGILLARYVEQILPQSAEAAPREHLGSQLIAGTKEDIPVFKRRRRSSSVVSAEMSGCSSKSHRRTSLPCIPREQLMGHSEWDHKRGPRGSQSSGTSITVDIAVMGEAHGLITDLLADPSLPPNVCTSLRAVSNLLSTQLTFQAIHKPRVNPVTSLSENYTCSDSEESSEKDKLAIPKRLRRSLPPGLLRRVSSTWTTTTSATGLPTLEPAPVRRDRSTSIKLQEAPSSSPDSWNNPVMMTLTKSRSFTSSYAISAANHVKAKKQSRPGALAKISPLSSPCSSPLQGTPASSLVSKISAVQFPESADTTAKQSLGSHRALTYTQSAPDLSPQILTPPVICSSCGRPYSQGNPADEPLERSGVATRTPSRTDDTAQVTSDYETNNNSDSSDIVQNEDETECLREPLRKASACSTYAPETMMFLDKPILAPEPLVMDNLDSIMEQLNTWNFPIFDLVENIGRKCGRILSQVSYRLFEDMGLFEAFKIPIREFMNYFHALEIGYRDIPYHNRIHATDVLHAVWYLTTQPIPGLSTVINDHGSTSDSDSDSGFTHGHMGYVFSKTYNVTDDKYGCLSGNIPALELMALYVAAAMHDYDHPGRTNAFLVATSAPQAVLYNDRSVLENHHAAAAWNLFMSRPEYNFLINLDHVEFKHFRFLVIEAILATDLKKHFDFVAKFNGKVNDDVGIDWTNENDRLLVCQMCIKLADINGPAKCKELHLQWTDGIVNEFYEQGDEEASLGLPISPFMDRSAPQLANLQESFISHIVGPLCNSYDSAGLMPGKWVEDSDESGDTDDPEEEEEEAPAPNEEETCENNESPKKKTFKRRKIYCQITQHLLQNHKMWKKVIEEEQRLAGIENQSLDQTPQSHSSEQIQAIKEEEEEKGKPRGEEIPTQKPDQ

For `COc1cc2c(cc1OC)-c1c/c(=N\c3c(C)cc(C)cc3C)n(C)c(=O)n1CC2` [trequinsin, 9,10-dimethoxy-3-methyl-2-(2,4,6-trimethylphenyl)imino-6,7-dihydropyrimido[6,1-a]isoquinolin-4-one], the “effect on HeLa cell viability / cytotoxicity” value (HeLa cells [1]; HeLa) was “did not affect HeLa cell viability in any detectable way” and the “blocking of binding of PDE3A to the tethered linker analogue” value (PDE3A) was “blocked”.
With `CCN(CC)c1ccc(C2=NNC(=O)CC2C)cc1[N+](=O)[O-]` (stereo not drawn) [DNMDP, 6-(4-(diethylamino)-3-nitrophenyl)-5-methyl-4,5-dihydropyridazin-3(2H)-one] the kinase inhibition (234 kinases) was “no kinase inhibition”, the EC70 (HeLa cells [1]; HeLa) was 30 nM and the EC50 (HeLa cells [1]; Homo sapiens, HeLa cervical carcinoma cells) was 10 to 100 nM. The “effect on cell viability” value (A549 cells [2]) was “did not affect cell viability”, the “toxicity in dose-response analysis” value (NCI-H1734 cells) was “specifically toxic” and the “rescue of toxicity by PDE3A sgRNA2 and sgRNA3” value (HeLa cells [3]) was “significant rescue of toxicity”. For the same compound, the “sensitivity of A549 cells upon expression of SLFN12” value (A549 cells [4]) was “sufficient to confer DNMDP sensitivity”.

Source: patent publication US11207320B2, “Compositions and methods for cancer expressing PDE3A or SLFN12” (The Broad Institute, Inc., priority 2015, dated 2021)
